In brackets after ≈: the same amount, converted by molar mass. Like-named read-outs stand apart in the source and are kept apart here.
Experiments:
[1] = system: Cholesterol Synthesis in Isolated Rat Hepatocytes; assay: Rat hepatocyte cholesterol biosynthesis model (14C-acetate incorporation into digitonin-precipitable sterols); type: cell-based; conditions: for inhibition at 125 µg/mL / inhibition at 250 µg/mL / inhibition at 500 µg/mL / IC50: Rattus norvegicus, Hepatocyte, 45 min preincubation, 30 min incorporation
Procedure: Primary rat parenchymal hepatocytes were prepared from male Wistar rats (180-220 g) at mid-dark in the diurnal cycle by standard collagenase perfusion method as described previously. Ingebritsen et al. J. Biol. Chem., 254: 9986-9989, (1979). Aliquots of cells were suspended (100 mg in 2 ml) in Eagle's minimum essential medium (MEM) supplemented with 2% bovine albumin, and preincubated in a shaking water bath at about 37° under 95% O₂/5% CO₂ with compounds added as given in the data. […] Following a preincubation of about 15 to about 45 minutes as indicated, cholesterol synthesis in intact cells was assayed by 2-14C-acetate (1.8 mCi/mmol, 0.5 µCi/ml) incorporation for about 30 to about 60 minutes (previously shown to be time-linear) into total digitonin-precipitable sterols. […] Percent inhibition was calculated from the average of duplicates vs. triplicate vehicle controls conducted simultaneously.
The primary rat hepatocyte assay for cholesterol bio-synthesis inhibition was conducted as described in Example 2 except the preincubation was about 45 minutes and the 14C-acetate incorporation was about 30 minutes. The indicated compounds were purified from the same natural product source as the mixture used in Example 2. […] Two-component mixtures of the constituents separated from the tocotrienol mixture were tested under the conditions indentical to Table 2A.

HMG-CoA reductase = HMG-CoA reductase specific activity in chickens fed compound in diet; type: in vivo; conditions: 20 ppm in corn control diet, 4 weeks; for HMG-CoA Reductase Specific Acticity: 6-week old male chickens, control 1086.9(±114.0)
Procedure: Natural gamma-tocotrienol and delta-tocotrienol were evaluated for their hypocholesterolemic action in normocholesterolemic chickens and genetically hypercholesterolemic swine. Newborn male chicks (10 for each group) were raised on a standard corn-soybean-based control diet for two weeks and then were switched to either control or experimental diets for four weeks. Drug treatment consisted of the addition of gamma-tocotrienol or delta-tocotrienol to the corn-soybean-based diet at a concentration of 20 ppm. At the end of the feeding period, all the birds were fasted (about 36 hours) and refed (about 48 hours) to induce cholesterolgenic emzymes prior to sacrifice. The specific activity of HMG-CoA reductase, total serum cholesterol levels, HDL/LDL cholesterol pools, and serum triglyceride levels were examined (Table 5).

## CC(C)=CCC/C(C)=C/CC/C(C)=C/CC[C@]1(C)CCc2cc(O)cc(C)c2O1 [d-δ-tocotrienol]
[1]; 125 µg/ml, Expt. # 2, read-out: % Inhibition at µg/ml conc: 125
  inhibition at 125 µg/mL: 26%
[1]; 250 µg/ml, Expt. # 1, read-out: % Inhibition at µg/ml conc: 250
  inhibition at 250 µg/mL: 49%
[1]; 250 µg/ml, Expt. # 2, read-out: % Inhibition at µg/ml conc: 250
  inhibition at 250 µg/mL: 33%
[1]; 500 µg/ml, Expt. # 1, read-out: % Inhibition at µg/ml conc: 500
  inhibition at 500 µg/mL: 62%
[1]; 500 µg/ml, Expt. # 2, read-out: % Inhibition at µg/ml conc: 500
  inhibition at 500 µg/mL: 63%
[1]; Expt. # 1, read-out: IC₅₀
  IC50: 260 µg/mL (≈ 656 µM)
[1]; Expt. # 2, read-out: IC₅₀
  IC50: 340 µg/mL (≈ 857 µM)
[1]; rat and chicken hepatocyte system
  times more active than alpha-tocotrienol: at least 5 times
HMG-CoA reductase
  HMG-CoA Reductase Specific Acticity [% of Control]: 50.6%
  HMG-CoA Reductase Specific Acticity: 550.2(±33.8)

## CC(C)=CCC/C(C)=C/CC/C(C)=C/CC[C@]1(C)CCc2cc(O)c(C)c(C)c2O1 [d-γ-tocotrienol]
[1]; read-out: % Inhibition at µg/ml conc: 125, 125 µg/ml, Expt. # 2
  inhibition at 125 µg/mL: 28%
[1]; read-out: % Inhibition at µg/ml conc: 250, 250 µg/ml, Expt. # 1
  inhibition at 250 µg/mL: 48%
[1]; read-out: % Inhibition at µg/ml conc: 250, 250 µg/ml, Expt. # 2
  inhibition at 250 µg/mL: 34%
[1]; read-out: % Inhibition at µg/ml conc: 500, 500 µg/ml, Expt. # 1
  inhibition at 500 µg/mL: 60%
[1]; read-out: % Inhibition at µg/ml conc: 500, 500 µg/ml, Expt. # 2
  inhibition at 500 µg/mL: 61%
[1]; read-out: IC₅₀, Expt. # 1
  IC50: 270 µg/mL (≈ 658 µM)
[1]; read-out: IC₅₀, Expt. # 2
  IC50: 360 µg/mL (≈ 877 µM)
HMG-CoA reductase
  HMG-CoA Reductase Specific Acticity [% of Control]: 45.5%
  HMG-CoA Reductase Specific Acticity: 494.2(±22.9)

— patent EP0421419A2, “Tocotrienols in the treatment of hypercholesterolemia, hyperlipidemia and thromboembolic disorders” (Bristol-Myers Squibb Company, priority 1989, dated 1991)
